Test results published in US7297682B2, “Diphosphate salt of a 4″—substituted-9-deoxo-9 A—AZA—homoerythromycin derivatives and its pharmaceutical composition” (Pfizer Inc., priority 1999, dated 2007).
Structures can show the parent of a compound that is named as a salt.

Tests used:
[1] = hygroscopicity: water uptake and water content versus relative humidity (VTI, Karl Fisher); type: physicochemical
Protocol: The crystalline diphosphate salt gradually absorbs water to about 13% at 87% relative humidity with a rapid uptake of water to about 48% occurring at about 90% relative humidity. Thermogravametric analysis on the diphosphate salt discloses that three waters are lost by about 75° C., a fourth water is lost by about 120° C., the fifth water is lost by about 170° C., and the final three waters are lost by about 200° C. The maximum number of water molecules necessary for the stabilization of the crystalline lattice appears to be about eight. Drying the diphosphate salt in about 70° C. in air or about 45° C. in a vacuum removed the water leaving a pseudomorph.
Drying in the VTI at 20-25° C. indicated a weight loss of 10%; the dried salt gradually adsorbed water to 15% at 85% RH (relative humidity), followed by a rapid uptake to 48% at 90% RH. At 90% RH, the compound deliquesced.
The mobility of the water within the crystalline lattice is directly related to the relative humidity of the environment the diphosphate salt comes in contact with. For example, at about 87% relative humidity, the compound contains about 13% water; at 60% relative humidity the compound contains about 8% water; and at 40% relative humidity the diphosphate salt contains about 5% water (all calculations by KF).
Both the liquid crystal and the crystalline form of the diphosphate were hygroscopic. When attempts were conducted in hydrophilic solvents, the addition of 4% to 5% (v/v) water to the amorphous slurry caused the compound to crystallize as an octahydate.

[2] = physchem; type: physicochemical; settings: water

Row | water adsorbed (gradual) by dried salt ([1]; after drying in the VTI at 20-25° C., at 85% RH) | rapid uptake of water by dried salt ([1]; after drying in the VTI at 20-25° C., at 90% RH) | water content (by KF) ([1]; at 40% relative humidity) | water content (by KF) ([1]; at 60% relative humidity) | water absorbed (gradual) ([1]; at 87% relative humidity) | behaviour at high humidity ([1]; at 90% RH) | water content (by KF) ([1]; at about 87% relative humidity) | rapid uptake of water ([1]; at about 90% relative humidity) | solubility [2] | hygroscopicity [1] | SMILES
1 | 15% | 48% | about 5% | about 8% | about 13% | deliquesced | about 13% | about 48% | ~280 mg/mL |  | CCCNC[C@]1(O)C(C)OC(OC2C(C)C(=O)OC(CC)[C@@](C)(O)[C@H](O)[C@@H](C)NC[C@H](C)C[C@](C)(O)[C@H](OC3OC(C)CC(N(C)C)[C@H]3O)C2C)C[C@@]1(C)OC (stereo partly drawn) [crystalline diphosphate salt, (2R,3S,4R,5R,8R,10R,11R,12S,13S,14R)-13-[[2,6-dideoxy-3-C-methyl-3-O-methyl-4-C-[(propylamino)methyl]-α-L-ribo-hexopryanosyl]oxy]-2-ethyl-3,4,10-trihydroxy-3,5,8,10,12,14-hexamethyl-11-[[3,4,6-trideoxy-3-(dimethylamino)-β-D-xylo-hexopyranosyl]oxy]-1-oxa-6-azacyclopentadecan-15-one diphosphate]
2 |  |  |  |  |  |  |  |  |  | hygroscopic | CCCNC[C@]1(O)C(C)OC(OC2C(C)C(=O)OC(CC)[C@@](C)(O)[C@H](O)[C@@H](C)NC[C@H](C)C[C@](C)(O)[C@H](OC3OC(C)CC(N(C)C)[C@H]3O)C2C)C[C@@]1(C)OC (stereo partly drawn) [liquid crystal, (2R,3S,4R,5R,8R,10R,11R,12S,13S,14R)-13-[[2,6-dideoxy-3-C-methyl-3-O-methyl-4-C-[(propylamino)methyl]-α-L-ribo-hexopryanosyl]oxy]-2-ethyl-3,4,10-trihydroxy-3,5,8,10,12,14-hexamethyl-11-[[3,4,6-trideoxy-3-(dimethylamino)-β-D-xylo-hexopyranosyl]oxy]-1-oxa-6-azacyclopentadecan-15-one diphosphate]
